Reference: patent publication US5464617A, “β-lactam compounds” (Hoffmann-La Roche Inc., priority 1994, dated 1995)
Values after ≈ are worked out from the molar mass of the structure shown. Structures can show the parent of a compound that is named as a salt. Where two headings read alike, the source gives them in different places.

Tests used:
E. coli 1346 = test: Antibacterial activity of the products per se, serial dilution method in liquid medium (Test E); type: cell-based; conditions: Table 4; test E, product per se
From the text: The antibacterial activity of the products per se is illustrated on the basis of Table 3 hereinafter, the minimum inhibitory concentration […] in vitro against E. coli 1346 being determined using the serial dilution method in liquid medium: […]

[1] = tested on: Citrobacter freundii 1982; test: MIC in vitro of a 1:4 combination of ceftriaxone with a compound of formula I (Test D); type: cell-based; conditions: 1:4 combination of ceftriaxone with the compound; for MIC C. freundii 1982 (D): Table 4, test D
Protocol: The minimum inhibitory concentration in vitro ([…]) of a 1:4 combination of ceftriaxone with a compound of formula I against Citrobacter freundii 1982 was measured and compiled in Table 2 hereinafter.

β-lactamase = β-lactamase (Citrobacter freundii, UniProt P05193); test: Determination of the β-lactamase inhibiting activity (Test C): inhibition of nitrocefin cleavage by isolated β-lactamase; type: biochemical, Citrobacter freundii 1982; conditions: pH 7.0, 37° C.
Protocol: Various β-lactamases can be isolated from penicillin- or cephalosporin-resistant bacterial strains such as Klebsiella pneumoniae NCTC 418, Proteus vulgaris 1028, Bacillus licheniformis 749/C, Escherichia coli SNO1, Pseudomonas aeruginosa 18SH and Citrobacter freundii 1203. For this purpose, the corresponding strains are cultivated in Tryptic Soy Broth (Difco) and harvested by centrifugation in the last logarithmic growth phase (when necessary 50-100 mg/l of ampicillin are added to the medium towards the end of the log-phase in order to induce the β-lactamase). The thus-obtained bacterial mass is treated with 20 mM Tris-HCl buffer (pH 7.0); the cells are broken open with a French press while cooling. The mixture is centrifuged (20,000 r/min.) for 20-30 minutes and a clear crude extract is obtained. The purification of the proteins is effected according to the method of Cartwright, S. J. & Waley, S. G. [Biochem. J. 221, 505-512 (1980)] and, for B. lichenformis, Ellerby, L. M. et al. [Biochemistry 29, 5797-5806 (1990)].
The determination of the activity of the isolated β-lactamases can be carried out according to the method of O'Callaghan, C. H. et al. [Antimicr. Ag. Chemother. […] The cleavage of the substrate, which is accompanied by a change in colour, is effected at 37° C. and is followed quantitatively at 482 nm using a spectral photometer. […]

[2] = tested on: Citrobacter freundii 1982; test: MIC in vitro of a 1:4 combination of ceftriaxone with a compound of formula I (Test D); type: cell-based; conditions: Table 2; ceftriaxone alone (control)

Chain of β-lactamase (P05193 21-381): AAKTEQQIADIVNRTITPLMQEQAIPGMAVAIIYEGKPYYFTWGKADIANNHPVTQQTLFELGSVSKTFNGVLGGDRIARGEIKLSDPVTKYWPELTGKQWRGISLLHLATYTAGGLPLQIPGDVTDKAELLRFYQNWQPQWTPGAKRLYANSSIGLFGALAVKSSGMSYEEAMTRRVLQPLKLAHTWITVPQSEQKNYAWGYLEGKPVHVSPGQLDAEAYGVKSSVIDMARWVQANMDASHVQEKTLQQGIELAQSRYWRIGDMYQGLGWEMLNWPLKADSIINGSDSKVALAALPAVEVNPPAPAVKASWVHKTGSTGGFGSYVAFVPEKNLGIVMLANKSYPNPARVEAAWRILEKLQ

(1aS,3aR,6bS)-5-(Carbamoyloxymethyl)-2-(4-hydroxyphenylcarbamoyl)-1-oxo-1,1a,2,3,3a,6b-hexahydro-4-oxa-2,6a-diazacyclobut[cd]indene-6-carboxylic acid sodium salt [31(g)]
MIC E. coli 1346 (E) (E. coli 1346): 0,5 μg/ml | MIC C. freundii 1982 (D) [1]: 16 µg/mL | IC50 (β-lactamase; Table 4, test C, nitrocefin, 15 minutes pre-incubation, read-out: IC 50 (C)): 51 µM

(1aS,3aR,6bR)-2-[(R)- and [(S)-1,1-Dioxo-tetrahydrothien-3-ylcarbamoyl]-5-methylsulphonyloxy-1-oxo-1a,2,3,3a,4,6b-hexahydro-1H-2,6a-diazacyclobut[cd]indene-6-carboxylic acid sodium salt [9(g)]
MIC C. freundii 1982 ([1]; Table 2): 0.25 µg/mL | IC50 (β-lactamase; Table 1, nitrocefin substrate, 15 minutes pre-incubation of β-lactamase with inhibitor, read-out: IC 50): 0.027 µM

CO/N=C(\C(=O)N[C@@H]1C(=O)N2C(C(=O)O)=C(CSc3nc(=O)c(=O)[nH]n3C)CS[C@H]12)c1csc(N)n1 [Ceftriaxone, ceftriaxone]
MIC C. freundii 1982 [2]: 128 µg/mL

Cc1nnc(SCC2=C(C(=O)O)N3C(=O)[C@@H]4[C@H]3[C@H](C2)CN4C=O)s1 [65(e), (1aS,3aR,6bR)-2-Formyl-5-(5-methyl-1,3,4-thiadiazol-2-ylsulphanylmethyl)-1-oxo-1a,2,3,3a,4,6b-hexahydro-1H-2,6a-diazacyclobut[cd]indene-6-carboxylicacid sodium salt]
MIC E. coli 1346 (E) (E. coli 1346): 1 µg/mL | MIC C. freundii 1982 (D) [1]: 0.5 µg/mL

Cn1nc[n+](C)c1CSC1=C(C(=O)[O-])N2C(=O)[C@@H]3[C@H]2[C@H](C1)CN3C(=O)C(F)(F)F [3(an), (1aS,3aR,6bR)-5-[(1,4-Dimethyl-1H-1,2,4-triazol-5-ylio)methylsulphanyl]-1-oxo-2-trifluoroacetyl-1a,2,3,3a,4,6b-hexahydro-1H-2,6a-diazacyclobut[cd]indene-6-carboxylate]
MIC E. coli 1346 (E) (E. coli 1346): 32 µg/mL (≈ 74.2 µM) | MIC C. freundii 1982 (D) [1]: 32 µg/mL

Cn1nc(O)c(=O)nc1SCC1=C(C(=O)O)N2C(=O)[C@H]3NC[C@@H](C1)[C@H]32 [Example 53, (1aS,3aR,6bR)-5-(2,5-Dihydro-6-hydroxy-2-methyl-5-oxo-1,2,4-triazin-3-ylsulphanylmethyl)-1-oxo-1a,2,3,3a,4,6 b-hexahydro-1H-2,6a-diazacyclobut[cd]indene-6-carboxylic acid trifluoroacetate]
MIC E. coli 1346 (E) (E. coli 1346): 2 µg/mL | MIC C. freundii 1982 (D) [1]: 4 µg/mL

NC(=O)CSC1=C(C(=O)O)N2C(=O)[C@@H]3[C@H]2[C@H](C1)CN3C(=O)Nc1ccc(O)cc1 [3(p), (1aS,3aR,6bR)-5-Carbamoylmethylsulphanyl-2-(4-hydroxyphenylcarbamoyl)-1-oxo-5-(pyridin-4-ylsulphanyl)-1a,2,3,3a,4,6b-hexahydro-1H-2,6a-diazacyclobut[cd]indene-6-carboxylic acid sodium salt]
MIC E. coli 1346 (E) (E. coli 1346): 32 µg/mL | MIC C. freundii 1982 (D) [1]: 1 µg/mL

O=C(NCc1ccc(O)cc1)OCC1=C(C(=O)O)N2C(=O)[C@@H]3[C@H]2[C@H](C1)CN3C(=O)C(F)(F)F [102(b), (1aS,3aR,6bR)-5-[(4-Hydroxy-benzyl)-carbamoyloxymethyl]-2-trifluoroacetyl-1-oxo-1a,2,3,3a,4,6b-hexahydro-1H-2,6a-diazacyclobut[cd]indene-6-carboxylicacid sodium salt]
MIC E. coli 1346 (E) (E. coli 1346): 1 µg/mL | MIC C. freundii 1982 (D) [1]: 2 µg/mL

Cc1cc(SCC2=C(C(=O)O)N3C(=O)[C@H]4NC[C@@H](O2)[C@H]43)n2nc(C(N)=O)nc2n1 [Example 29(d), (1aS,3aR,6bS)-5-(2-Carbamoyl-5-methyl[1,2,4]triazolo-[1,5-a]pyrimidin-7-ylsulphanylmethyl)-1-oxo-1,1a,2,3,3a,6b-hexahydro-4-oxa-2,6a-diazacydobut[cd]indene-6-carboxylic acid]
MIC E. coli 1346 (E) (E. coli 1346): 4 µg/mL (≈ 9.58 µM) | MIC C. freundii 1982 (D) [1]: 8 µg/mL

O=C(O)C1=C(CSc2nnnn2CC(=O)N2CCOCC2)O[C@@H]2CN[C@@H]3C(=O)N1[C@@H]32 [29(l), (1aS,3aR,6bS)-5-(1-(2-Morpholin-4-yl-2-oxo-ethyl)-1H-tetrazol-5-ylsulphanylmethyl)-1-oxo-1,1a,2,3,3a,6 b-hexahydro-4-oxa-2,6a-diazacyclobut[cd]indene-6-carboxylic acid]
MIC E. coli 1346 (E) (E. coli 1346): > 32 µg/mL | MIC C. freundii 1982 (D) [1]: 32 µg/mL
